Results on six compounds are retold here after US9416115B2, “Fused heterocyclic compounds as ion channel modulators” (Gilead Sciences, Inc., priority 2013, dated 2016).

One data set addresses T1, hNaV1.2 (SCN2A) (Homo sapiens, UniProt Q99250).
T1 construct: expressed in transfected cells
Put plainly: Use-dependent inhibition of the CNS Nav1.2 sodium channel. The note with it: use-dependent block, 25 Hz, pulse 20, read-out: Nav1.2 UDB 25 Hz 10 uM. Type of data set: cell-based. Put shortly: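 Use-dependent block of human Nav1.2 was measured by automated whole-cell patch clamp (QPatch) in HEK-293 cells stably expressing hNaV1.2 with SCN1B and SCN2B. From a holding potential of −120 mV, a train of 20 pulses to 0 mV (20 ms, 25 Hz) was applied. Peak current at pulse 20 was normalized to the first pulse, and percent inhibition was calculated relative to compound-free recordings.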

A short description of data set [1]: Plasma concentration in the rabbit ischemia study. Type of data set: in vivo, New Zealand rabbits. The note with it: iv infusion targeted to 1 uM plasma. How it is done: Rabbits were anesthetized with ketamine (35 mg/kg) and xylazine (5 mg/kg) intramuscular injection (im). A tracheotomy was performed and the trachea was intubated with an endotracheal tube. The animal was ventilated with room air supplemented with oxygen using a pressure control animal ventilator (Kent Scientific Corp., Torrington, Conn.) at a respiratory rate of 40 strokes/min and peak inspiration pressure of 10 mmH2O, which was adjusted to keep blood gases and pH within the physiological range (iSTAT clinic analyzer, Heska Corp.; Waukesha, Wis.). The left femoral artery was cannulated for the measurement of blood pressure (BP). Blood samples were also withdrawn from femoral artery. The right external jugular vein was cannulated for drug/vehicle administration. Needle electrodes were inserted subcutaneously into the limbs for recording of the surface electrocardiogram (ECG).
Reference electrodes were placed in the open incision of the neck. The body temperature of the animal was monitored via a rectal thermometer and maintained at 37-40° C. by adjusting the surface temperature of the surgical table. Regional ischemia (15 min) was induced by ligating the LAD followed by 15 min of reperfusion caused by releasing the ligation. The heart was excised at the end of the experiment and the LAD was re-ligated. The ischemic area was visualized by perfusing the heart with 1% Evans blue in saline and calculated as a percentage of total ventricular weight. Rabbits with ischemic area less than 10% or larger than 25% were excluded from the analysis. Animals were randomly assigned to vehicle and test compound groups. Test compounds were dissolved in 15% NMP, 10% Solutol and 75% de-ionized water (dH2O). Test compounds were given as an iv infusion at a rate targeted to reach plasma concentrations of 1 μM. After 30 min of compound administration the heart was subjected to 15 min of ischemia followed by 15 min of reperfusion.

In another data set the target is hNav1.1 (SCN1A) (Homo sapiens, UniProt P35498). Description: Use-dependent inhibition of the CNS Nav1.1 sodium channel. Type of data set: cell-based. As to conditions: use-dependent block, 25 Hz, pulse 20, read-out: Nav1.1 UDB 25 Hz 10 uM. Put shortly:
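HEK-293 cells stably expressing WT hNav1.1, automated whole-cell patch clamp at 23-25 °C with CsF-based internal and NaCl external solutions, pH 7.35. Compound applied twice, 200 s equilibration; block measured at pulse 20 of a 25 Hz train (0 mV, 20 ms) from −120 mV, as mean % inhibition versus compound-free.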

SMILES strings stand for the structures. Where only a bound is given, the exact number is not on record here.

T1 sequence (Q99250 whole entry): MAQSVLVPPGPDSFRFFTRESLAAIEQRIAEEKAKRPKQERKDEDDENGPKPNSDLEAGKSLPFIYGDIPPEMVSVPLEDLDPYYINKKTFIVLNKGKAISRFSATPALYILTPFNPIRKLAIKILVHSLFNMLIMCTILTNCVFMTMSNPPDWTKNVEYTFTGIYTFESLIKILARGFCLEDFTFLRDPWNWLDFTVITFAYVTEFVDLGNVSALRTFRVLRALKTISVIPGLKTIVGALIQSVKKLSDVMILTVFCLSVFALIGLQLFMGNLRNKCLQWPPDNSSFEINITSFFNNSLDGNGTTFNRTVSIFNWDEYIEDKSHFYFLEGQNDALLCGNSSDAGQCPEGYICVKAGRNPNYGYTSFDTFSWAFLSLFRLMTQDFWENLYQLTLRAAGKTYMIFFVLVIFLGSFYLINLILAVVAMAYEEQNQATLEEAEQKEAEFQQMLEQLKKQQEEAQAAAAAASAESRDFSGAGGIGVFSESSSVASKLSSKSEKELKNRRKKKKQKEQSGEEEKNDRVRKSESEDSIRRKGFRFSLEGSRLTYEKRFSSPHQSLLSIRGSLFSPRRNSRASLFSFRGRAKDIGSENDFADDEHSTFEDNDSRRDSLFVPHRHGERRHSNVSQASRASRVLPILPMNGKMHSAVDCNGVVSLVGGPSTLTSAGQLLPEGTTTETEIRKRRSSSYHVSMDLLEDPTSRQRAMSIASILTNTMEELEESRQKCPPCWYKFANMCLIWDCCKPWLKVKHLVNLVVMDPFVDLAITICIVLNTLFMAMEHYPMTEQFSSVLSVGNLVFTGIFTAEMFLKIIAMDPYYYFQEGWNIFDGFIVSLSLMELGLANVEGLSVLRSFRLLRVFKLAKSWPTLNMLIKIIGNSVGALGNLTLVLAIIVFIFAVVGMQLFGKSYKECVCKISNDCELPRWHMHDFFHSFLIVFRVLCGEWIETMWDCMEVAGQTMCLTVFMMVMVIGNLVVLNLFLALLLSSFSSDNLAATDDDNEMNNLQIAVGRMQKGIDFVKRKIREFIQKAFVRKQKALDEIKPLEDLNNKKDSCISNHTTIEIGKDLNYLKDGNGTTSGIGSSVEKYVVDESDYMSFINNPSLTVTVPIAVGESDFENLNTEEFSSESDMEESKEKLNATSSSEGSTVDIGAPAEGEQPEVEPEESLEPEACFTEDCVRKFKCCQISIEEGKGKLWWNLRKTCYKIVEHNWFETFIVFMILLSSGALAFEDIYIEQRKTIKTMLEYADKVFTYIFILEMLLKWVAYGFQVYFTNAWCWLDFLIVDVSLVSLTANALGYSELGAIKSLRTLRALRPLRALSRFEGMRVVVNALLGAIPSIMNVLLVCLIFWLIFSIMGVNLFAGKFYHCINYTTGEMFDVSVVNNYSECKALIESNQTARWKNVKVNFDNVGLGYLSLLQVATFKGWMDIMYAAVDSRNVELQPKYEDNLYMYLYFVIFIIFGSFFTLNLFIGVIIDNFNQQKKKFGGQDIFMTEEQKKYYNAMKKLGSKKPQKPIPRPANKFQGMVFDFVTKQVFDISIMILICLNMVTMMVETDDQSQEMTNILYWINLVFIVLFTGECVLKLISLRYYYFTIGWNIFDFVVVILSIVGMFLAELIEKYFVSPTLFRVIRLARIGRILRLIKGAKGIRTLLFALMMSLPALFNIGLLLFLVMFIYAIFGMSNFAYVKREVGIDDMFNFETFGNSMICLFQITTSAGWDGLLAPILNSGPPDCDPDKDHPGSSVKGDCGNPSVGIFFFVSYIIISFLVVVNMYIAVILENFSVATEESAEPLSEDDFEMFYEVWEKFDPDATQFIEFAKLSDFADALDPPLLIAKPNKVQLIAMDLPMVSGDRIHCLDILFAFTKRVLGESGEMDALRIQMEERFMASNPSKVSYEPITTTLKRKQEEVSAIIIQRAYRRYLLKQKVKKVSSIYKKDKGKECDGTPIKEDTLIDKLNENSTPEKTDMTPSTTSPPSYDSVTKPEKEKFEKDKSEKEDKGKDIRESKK
T1 sequence (Q07699 19-218 partner): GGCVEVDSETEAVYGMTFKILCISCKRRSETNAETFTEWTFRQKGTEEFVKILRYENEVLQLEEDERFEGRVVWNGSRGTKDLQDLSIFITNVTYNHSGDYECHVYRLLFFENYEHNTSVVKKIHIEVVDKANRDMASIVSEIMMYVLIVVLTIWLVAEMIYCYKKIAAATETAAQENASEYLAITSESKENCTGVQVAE
T1 sequence (O60939 30-215 partner): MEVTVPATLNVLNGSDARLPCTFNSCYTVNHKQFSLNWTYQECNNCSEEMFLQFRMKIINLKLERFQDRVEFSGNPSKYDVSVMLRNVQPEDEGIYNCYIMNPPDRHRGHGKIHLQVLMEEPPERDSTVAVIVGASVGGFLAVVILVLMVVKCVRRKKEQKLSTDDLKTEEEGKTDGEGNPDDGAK

As to `O=C1CCCN1CCOc1noc2ccc(-c3ccc(OC(F)(F)F)cc3)cc12` [Example 59, 1-(2-((5-(4-(trifluoromethoxy)phenyl)benzo[d]isoxazol-3-yl)oxy)ethyl)pyrrolidin-2-one], the inhibition at 10 µM at hNaV1.2 (SCN2A) turned out to be 37.4%; on hNav1.1 (SCN1A) it was 46.9%. Moreover, in data set [1], the Plasma concentration was 1.3 µM.

`FC(F)(F)Oc1ccc(-c2ccc3onc(OCc4ncccn4)c3c2)cc1` [Example 1, 3-(pyrimidin-2-ylmethoxy)-5-(4-(trifluoromethoxy)phenyl)benzo[d]isoxazole]: the inhibition at 10 µM at hNaV1.2 (SCN2A) came out at 10.2%; on hNav1.1 (SCN1A), 5.5%. In data set [1], this compound showed a Plasma concentration of 1 µM.

In the case of `FC(F)(F)Oc1ccc(-c2ccc3onc(OCc4nnc(C5CC5)o4)c3c2)cc1` [Example 96, 3-((5-cyclopropyl-1,3,4-oxadiazol-2-yl)methoxy)-5-(4-(trifluoromethoxy)phenyl)benzo[d]isoxazole], the inhibition at 10 µM stood at 5.7% at hNaV1.2 (SCN2A) and 29.4% on hNav1.1 (SCN1A). This compound also had a Plasma concentration in data set [1] of 1 µM.

Turning to `Cc1ccnc(COc2noc3ccc(-c4ccc(OC(F)(F)F)cc4)cc23)n1` [Example 5, 3-((4-methylpyrimidin-2-yl)methoxy)-5-(4-(trifluoromethoxy)phenyl)benzo[d]isoxazole], the inhibition at 10 µM at hNaV1.2 (SCN2A) and on hNav1.1 (SCN1A) was under 5% throughout. In addition, in data set [1], the Plasma concentration amounted to 1.4 µM.

In the case of `Fc1cc(C(F)(F)F)ccc1-c1ccc2onc(OCc3ncccn3)c2c1` [Example 6, 5-(2-fluoro-4-(trifluoromethyl)phenyl)-3-(pyrimidin-2-ylmethoxy)benzo[d]isoxazole], the inhibition at 10 µM on hNaV1.2 (SCN2A) and at hNav1.1 (SCN1A) was under 5% each time. The Plasma concentration in data set [1] turned out to be 0.8 µM.

As to `FC(F)(F)Oc1ccc(-c2ccc3onc(OCCn4cncn4)c3c2)cc1` [Example 58, 3-(2-(1H-1,2,4-triazol-1-yl)ethoxy)-5-(4-(trifluoromethoxy)phenyl)benzo[d]isoxazole], the inhibition at 10 µM on hNaV1.2 (SCN2A) was 14.5%; on hNav1.1 (SCN1A), 43.5%. In addition, the Plasma concentration in data set [1] was found to be 1.3 µM.
